# Tests used:
# [1] = biological target: T1, human HDAC7 (Homo sapiens, UniProt Q8WUI4); assay: HDAC enzyme assay (HDAC-Glo class IIa), HDAC7; type: biochemical; settings: concentrations up to 10 μM
# T1 construct: purchased SignalChem Pharmaceutical Inc
# T1 sequence (Q8WUI4 1-952): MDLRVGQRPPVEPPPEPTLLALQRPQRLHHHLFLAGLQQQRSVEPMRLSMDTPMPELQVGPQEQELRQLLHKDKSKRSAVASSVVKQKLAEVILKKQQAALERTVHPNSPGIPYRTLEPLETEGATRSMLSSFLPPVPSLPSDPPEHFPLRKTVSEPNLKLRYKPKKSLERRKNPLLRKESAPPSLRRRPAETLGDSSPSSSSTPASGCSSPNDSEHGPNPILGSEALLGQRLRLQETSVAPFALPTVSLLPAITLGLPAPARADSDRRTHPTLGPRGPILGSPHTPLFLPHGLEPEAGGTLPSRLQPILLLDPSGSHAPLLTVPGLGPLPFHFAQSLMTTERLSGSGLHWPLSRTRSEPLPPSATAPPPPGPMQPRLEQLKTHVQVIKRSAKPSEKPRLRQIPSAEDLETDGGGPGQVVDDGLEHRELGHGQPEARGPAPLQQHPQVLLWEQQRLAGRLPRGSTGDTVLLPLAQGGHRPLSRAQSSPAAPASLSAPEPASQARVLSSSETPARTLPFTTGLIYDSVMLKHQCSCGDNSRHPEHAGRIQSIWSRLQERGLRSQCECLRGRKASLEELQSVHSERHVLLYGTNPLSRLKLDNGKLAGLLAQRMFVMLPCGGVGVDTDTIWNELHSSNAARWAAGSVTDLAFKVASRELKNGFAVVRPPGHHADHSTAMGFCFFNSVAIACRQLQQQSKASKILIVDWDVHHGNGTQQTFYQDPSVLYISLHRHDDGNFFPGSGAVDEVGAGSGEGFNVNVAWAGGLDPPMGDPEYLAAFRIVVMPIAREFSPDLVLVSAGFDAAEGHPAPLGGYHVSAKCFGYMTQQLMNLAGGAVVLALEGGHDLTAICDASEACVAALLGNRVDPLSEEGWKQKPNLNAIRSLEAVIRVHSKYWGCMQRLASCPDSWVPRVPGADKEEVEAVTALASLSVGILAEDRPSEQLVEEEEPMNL
# Method: (§1) Recombinant HDAC6, HDAC7, HDAC1 were obtained from SignalChem Pharmaceutical Inc. (Richmond, BC, Canada), and recombinant human HDAC4 was prepared at Takeda pharmaceutical company. One μL of T-518 diluted with DMSO was added to 75 μL of assay buffer (24 mM Tris–HCl (pH 7.5), 135 mM NaCl, 0.35 mM KCl, 1 mM MgCl2, 0.01% Tween 20, 0.6 mM GSH) in 384 well plates. Two μL of diluted compounds were added to 384 well plates and 2 μL of recombinant HDAC enzymes was added and then centrifuged at 1000 rpm for 10 s. The final concentrations of each HDAC enzyme were as follows, human HDAC1, 170 pM; human HDAC6, […]; human HDAC4, 68 pM; human HDAC7, 13 pM. After incubation for 60 min at room temperature, 4 μL of HDAC-Glo reagent [HDAC-Glo I/II (Promega) for HDAC6 and HDAC1, HDAC-Glo class IIa (Promega) for HDAC4 and HDAC7] was added to start the reaction. After incubation for 20 min at room temperature, the luminescence was measured by Envision plate reader (PerkinElmer, Waltham, MA, USA). For experiments under the condition of 0 min preincubation, 4 μL of HDAC-Glo reagent was added at first to the 384 well plates including diluted compounds. […] After centrifugation at 1000 rpm for 10 s. and then incubation for 20 min at room temperature, the luminescence was measured by Envision. […] The inhibitory activity of T-518 was expressed as the value of IC50. […]
# [2] = test system: P301S tau Tg mice; assay: Septohippocampal retrograde axonal transport of Fluoro-Gold in tauopathy model; type: in vivo, mouse; settings: 3 mg/kg daily for 2 weeks, 5-month-old P301S tau Tg mice
# Method: T-518, ACY-738, Ricolinostat, and Tubastatin A were synthesized in Takeda. For in vitro cellular experiments, the compounds were solubilized with DMSO and diluted in the culture medium at the indicated concentrations. For in vivo experiments, the compound was reconstituted in 0.5% methylcellulose and administered orally at the indicated doses. After administration, mouse hippocampus was isolated and homogenized in RIPA extraction buffer (50 mM Tris–HCl, 150 mM NaCl, 1% NP-40, 0.5% sodium deoxycholate, and 0.1% SDS, pH 8.0) supplemented with protease and phosphatase inhibitor cocktail (Thermo Fischer, Waltham, MA, USA). The homogenate was centrifuged at 10,000g for 15 min and the supernatant was taken as the RIPA-soluble fraction.
# The integrity of retrograde axonal transport was evaluated by detecting the accumulation of Fluoro-Gold (Fluorochrome, Denver, CO) in the medial septal nucleus after injection into hippocampus (0.5 μL of 5% at AP − 2.3 mm, ML − 2.0 mm, and DV − 2.0 mm relative to bregma). Three days after injection, mice were anesthetized and transcardially perfused with PBS (pH 7.4) followed by 4% paraformaldehyde. […] Fluorescent cells in the medial septum region were counted with Image-Pro Plus software (version 4.5.0.24) (Media Cybernetics, Rockville, MD; https://www.mediacy.com/imageproplus).
# [3] = test system: experimental mice; assay: Tolerability of chronic dosing; type: in vivo
# [4] = biological target: T2, human HDAC4 (Homo sapiens, UniProt P56524); assay: HDAC enzyme assay (HDAC-Glo class IIa), HDAC4; type: biochemical; settings: concentrations up to 10 μM
# T2 construct: made in house
# T2 sequence (P56524 whole entry): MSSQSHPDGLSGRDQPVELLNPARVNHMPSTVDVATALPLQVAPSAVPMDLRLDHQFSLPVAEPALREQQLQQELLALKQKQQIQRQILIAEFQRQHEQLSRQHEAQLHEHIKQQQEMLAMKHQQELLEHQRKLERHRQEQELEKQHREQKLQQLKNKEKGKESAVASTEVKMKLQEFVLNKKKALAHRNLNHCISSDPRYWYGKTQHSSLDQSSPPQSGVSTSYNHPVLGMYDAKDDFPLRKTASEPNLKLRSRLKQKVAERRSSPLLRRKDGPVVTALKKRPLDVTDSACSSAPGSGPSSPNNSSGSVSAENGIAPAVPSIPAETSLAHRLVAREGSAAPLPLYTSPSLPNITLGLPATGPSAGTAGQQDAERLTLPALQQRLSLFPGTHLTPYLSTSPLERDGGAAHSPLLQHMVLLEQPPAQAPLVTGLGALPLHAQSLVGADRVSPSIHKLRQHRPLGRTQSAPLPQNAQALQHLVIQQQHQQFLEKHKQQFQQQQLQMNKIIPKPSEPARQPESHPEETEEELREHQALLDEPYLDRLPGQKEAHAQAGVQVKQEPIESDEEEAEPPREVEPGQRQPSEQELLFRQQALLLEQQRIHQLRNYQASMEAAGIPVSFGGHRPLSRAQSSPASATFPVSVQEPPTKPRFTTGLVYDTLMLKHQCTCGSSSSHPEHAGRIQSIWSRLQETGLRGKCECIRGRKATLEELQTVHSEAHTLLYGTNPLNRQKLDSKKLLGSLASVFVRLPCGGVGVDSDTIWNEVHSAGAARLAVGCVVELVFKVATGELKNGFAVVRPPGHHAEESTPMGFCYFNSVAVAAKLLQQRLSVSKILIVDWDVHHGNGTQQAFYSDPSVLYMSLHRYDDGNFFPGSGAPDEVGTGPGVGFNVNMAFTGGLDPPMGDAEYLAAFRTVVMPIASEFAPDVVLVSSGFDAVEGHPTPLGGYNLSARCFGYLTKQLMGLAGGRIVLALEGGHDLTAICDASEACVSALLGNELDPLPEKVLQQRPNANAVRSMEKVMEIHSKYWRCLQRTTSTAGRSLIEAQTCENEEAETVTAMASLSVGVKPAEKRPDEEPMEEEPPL
# Method: as §1
smiles,measurement,setting,value
"O=C1c2cc(-c3nnc(C(F)F)o3)cnc2CN1[C@@H]1CCCC[C@H]1NC(=O)C(F)(F)C(F)(F)F [T-518, N-[(1R,2R)-2-{3-[5-(difluoromethyl)-1,3,4-oxadiazol-2-yl]-5-oxo-5H,6H,7H-pyrrolo[3,4-b]pyridin-6-yl}cyclohexyl]-2,2,3,3,3-pentafluoropropanamide]",inhibition of human HDAC7 enzyme activity,[1],did not obviously inhibit
same,retrograde axonal transport of Fluoro-Gold from hippocampus to medial septal nucleus,[2],significantly improved axonal transport
same,tolerability of chronic dosing,[3],well tolerated
same,inhibition of human HDAC4 enzyme activity,[4],did not obviously inhibit

# Source: PMC8322070, “A novel orally active HDAC6 inhibitor T-518 shows a therapeutic potential for Alzheimer’s disease and tauopathy in mice” (Scientific Reports, 2021)
